{"source": "patent US8470850B2", "about": "“Inhibitors of VEGF receptor and HGF receptor signalling” (MethylGene Inc., priority 2004, dated 2013)", "key": {"[1]": {"molecular_target": "T1, VEGF receptor KDR (Homo sapiens, UniProt P35968)", "T1 construct": "made in house; host or cells: Sf9 cells (Spodoptera frugiperda), recombinant baculovirus", "T1 sequence (P35968 806-1356)": "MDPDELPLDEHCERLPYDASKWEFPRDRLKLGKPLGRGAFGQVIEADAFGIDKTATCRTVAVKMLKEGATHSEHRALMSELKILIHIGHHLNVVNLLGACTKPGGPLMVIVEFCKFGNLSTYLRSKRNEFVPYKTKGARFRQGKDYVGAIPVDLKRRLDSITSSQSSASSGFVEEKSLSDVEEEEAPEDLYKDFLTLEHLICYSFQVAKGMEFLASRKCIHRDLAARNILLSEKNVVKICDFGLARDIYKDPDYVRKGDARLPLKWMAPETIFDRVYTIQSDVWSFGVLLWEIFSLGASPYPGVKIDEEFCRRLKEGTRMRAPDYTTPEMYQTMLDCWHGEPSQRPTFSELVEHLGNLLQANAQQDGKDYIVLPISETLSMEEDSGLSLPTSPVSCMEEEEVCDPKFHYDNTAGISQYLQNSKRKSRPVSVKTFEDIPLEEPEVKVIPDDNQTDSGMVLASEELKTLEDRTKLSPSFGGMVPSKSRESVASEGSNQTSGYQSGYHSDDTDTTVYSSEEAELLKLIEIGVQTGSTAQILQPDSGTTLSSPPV", "test": "In vitro receptor tyrosine kinase assay (DELFIA), VEGF receptor KDR", "format": "biochemical", "settings": "ATP 0.6 uM; enzyme 5 nM; read-out: VEGF (enz.) (IC50)", "source_text": "In the case of VEGF receptor KDR a 1.6-kb cDNA corresponding to the catalytic domain of VEGFR2 or KDR (Genbank accession number AF035121 amino acid 806 to 1356) was cloned into the Pst I site of the pDEST20 gateway vector (Invitrogen) for the production of a GST-tagged version of that enzyme.\nThe GST-VEGFR2806-1356 protein was expressed in Sf9 cells (Spodoptera frugiperda) upon infection with recombinant baculovirus construct.\nThe supernatant was loaded onto a GST-agarose column (Sigma) equilibrated with PBS pH 7.3. Following a four column volume (CV) wash with PBS pH 7.3+1% Triton X-100 and 4 CV wash with buffer B (50 mM Tris pH 8.0, 20% glycerol and 100 mM NaCl), bound proteins were step eluted with 5 CV of buffer B supplemented with 5 mM DTT and 15 mM glutathion. […] Final GST-VEGFR2806-1356 protein preparations concentrations were about 0.7 mg/ml with purity approximating 70%."}, "[2]": {"molecular_target": "recombinant human c-Met/HGF receptor (Homo sapiens, UniProt P08581)", "sequence (P08581 1078-1337)": "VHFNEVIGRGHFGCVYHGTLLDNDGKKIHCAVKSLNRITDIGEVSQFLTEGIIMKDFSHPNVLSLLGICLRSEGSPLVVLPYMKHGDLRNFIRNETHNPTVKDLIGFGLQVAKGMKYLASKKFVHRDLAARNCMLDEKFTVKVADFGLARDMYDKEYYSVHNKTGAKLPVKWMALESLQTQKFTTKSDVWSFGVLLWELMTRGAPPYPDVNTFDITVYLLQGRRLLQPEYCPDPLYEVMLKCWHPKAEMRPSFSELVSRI", "test": "In vitro receptor tyrosine kinase assay (DELFIA), c-Met/HGF receptor", "settings": "read-out: C-Met (enz.) (IC50); ATP 10 uM; enzyme 25 nM", "quoted_text": "These tests measure the ability of compounds to inhibit the enzymatic activity of recombinant human c-Met/HGF receptor and VEGF receptor enzymatic activity.\nThis construct was used to generate recombinant baculovirus using the Bac-N-Blue™ system according to the manucfacturer's instructions (Invitrogen)\nThe c-Met IC protein was expressed in Hi-5 cells (Trichoplusia Ni) upon infection with recombinant baculovirus construct. Briefly, Hi-5 cells grown in suspension and maintained in serum-free medium (Sf900 II supplemented with gentamycin) at a cell density of about 2×10^6 cells/ml were infected with the abovementioned viruses at a multiplicity of infection (MOI) of 0.2 during 72 hours at 27° C. with agitation at 120 rpm on a rotary shaker. […] Cell pellets were frozen at −80° C. until purification was performed.\nAll steps described in cell extraction and purification were performed at 4° C. Frozen Hi-5 cell pellets infected with the C-Met IC recombinant baculovirus were thawed and gently resuspended in Buffer A (20 mM Tris pH 8.0, 10% glycerol, 1 μg/ml pepstatin, 2 μg/ml Aprotinin and leupeptin, 50 μg/ml PMSF, 50 μg/ml TLCK and 10 μM E64, 0.5 mM DTT and 1 mM Levamisole) using 3 mL of buffer per gram of cells. The suspension was Dounce homogenized after which it was centrifuged at 22500 g, 30 min., 4° C. The supernatant (cell extract) was used as starting material for purification of c-Met IC.\nThe supernatant was loaded onto a QsepharoseFF column (Amersham Biosciences) equilibrated with Buffer B (20 mM Tris pH 8.0, 10% glycerol) supplemented with 0.05M NaCl. […]\nInhibition of c-Met/HGF receptor and VEGFR/KDR was measured in a DELFIA™ assay (Perkin Elmer). […] Phosphorylated product was detected by incubation with Europium-labeled anti-phosphotyrosine MoAb. After washing the plates, bound MoAb was detected by time-resolved fluorescence in a Gemini SpectraMax reader (Molecular Devices)."}, "[3]": {"molecular_target": "TPR-MET fusion protein (MNNGHOS cell line) (Homo sapiens, UniProt P08581)", "sequence (P08581 with tags, fused parts or gaps)": "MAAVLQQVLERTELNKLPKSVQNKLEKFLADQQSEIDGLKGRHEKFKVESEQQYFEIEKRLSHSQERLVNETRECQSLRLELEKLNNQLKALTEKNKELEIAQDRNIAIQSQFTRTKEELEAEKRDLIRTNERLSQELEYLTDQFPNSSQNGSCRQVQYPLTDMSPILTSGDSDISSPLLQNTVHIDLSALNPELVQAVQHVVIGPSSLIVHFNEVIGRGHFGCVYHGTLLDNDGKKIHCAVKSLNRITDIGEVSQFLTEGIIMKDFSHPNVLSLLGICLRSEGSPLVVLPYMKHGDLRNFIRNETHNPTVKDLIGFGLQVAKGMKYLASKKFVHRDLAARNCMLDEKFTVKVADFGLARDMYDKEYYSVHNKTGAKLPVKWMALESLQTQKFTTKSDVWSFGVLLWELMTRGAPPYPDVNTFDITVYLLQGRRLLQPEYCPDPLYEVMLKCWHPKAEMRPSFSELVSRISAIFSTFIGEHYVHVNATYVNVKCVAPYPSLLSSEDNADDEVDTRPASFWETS", "test": "C-Met phosphorylation cell-based assay", "settings": "read-out: C-Met cell-based Y1230-34-35 tpr-met inhibition (IC50); MNNGHOS cells; compounds 3 hours prior to cell lysis", "procedure": "This test measures the ability of compounds to inhibit HGF stimulated auto-phosphorylation of the c-Met/HGF receptor itself in a whole cell system.\nMNNGHOS cell line expressing TPR-MET fusion protein were purchased from ATCC.\nInhibitor of c-Met formulated as 30 mM stocks in DMSO. For MNNGHOS treatments, cells, compounds were added to tissue culture media at indicated doses for 3 hours prior to cell lysis.\nLysate were separated on 5-20% PAGE-SDS and immunoblots were performed using Immobilon P polyvinylidene difluoride membranes (Amersham) according to the manufacturer's instructions for handling. The blots were washed in Tris-buffered saline with 0.1% Tween 20 detergent (TBST). […] Signal was quantitated by densitometry on Alpha-Imager."}, "[4]": {"test_system": "U87MG", "test": "In vivo solid tumor disease model, U87MG xenograft", "parameters": "species or system mice", "settings": "15 mg/kg once daily, IP, vehicle DMSO, 10 days", "source_text": "This test measures the capacity of compounds to inhibit solid tumor growth.\nTumor xenografts were established in the flank of female athymic CD1 mice (Charles River Inc.), by subcutaneous injection of 1×10^6U87, A431 or SKLMS cells/mouse. Once established, tumors were then serially passaged s.c. in nude mice hosts. Tumor fragments from these host animals were used in subsequent compound evaluation experiments. For compound evaluation experiments female nude mice weighing approximately 20 g were implanted s.c. by surgical implantation with tumor fragments of ˜30 mg from donor tumors. When the tumors were approximately 100 mm^3 in size (˜7-10 days following implantation), the animals were randomized a separated into treatment and control groups. Each group contained 6-8 tumor-bearing mice, each of which was ear-tagged and followed individually throughout the experiment\nMice were weighed and tumor measurements are taken by calipers three times weekly, starting on Day 1. These tumor measurements were converted to tumor volume by the well-known formula (L+W/4)^34/3π. The experiment was terminated when the control tumors reached a size of approximately 1500 mm^3. […] In addition to tumor volumes, body weight of animals were monitored twice weekly for up to 3 weeks."}}}
{"compound": "O=C(Cc1ccccc1)NC(=S)Nc1ccc(Oc2ccnc3cc(C(=O)N4CCOCC4)sc23)c(F)c1", "note": "[Example 3]", "values": [{"measurement": "IC50", "setting": "[1]", "value": "0.25 to 0.5", "unit": "µM"}, {"measurement": "IC50", "setting": "[2]", "value": "0.05 to 0.25", "unit": "µM"}, {"measurement": "IC50", "setting": "[3]", "value": "0.05 to 0.25", "unit": "µM"}]}
{"compound": "CN1CCN(C(=O)c2cc3ncnc(Oc4ccc(NC(=S)NC(=O)Cc5ccccc5)cc4F)c3s2)CC1", "note": "[Example 24, 1-(4-(6-(4-N-Methylpiperazylcarbamoyl)thieno[3,2-d]pyrimidin-4-yloxy)-3-fluorophenyl)-3-(2-phenylacetyl)thiourea]", "values": [{"measurement": "IC50", "setting": "[1]", "value": "0.25 to 0.5", "unit": "µM"}, {"measurement": "IC50", "setting": "[2]", "value": "0.05 to 0.25", "unit": "µM"}, {"measurement": "IC50", "setting": "[3]", "value": "> 0.5", "unit": "µM"}]}
{"compound": "Cn1cnnc1-c1cc2nccc(Oc3ccc(NC(=S)NC(=O)Cc4ccccc4)cc3F)c2s1", "note": "[Example 75, N-(3-Fluoro-4-(2-(4-methyl-4H-1,2,4-triazol-3-yl)thieno[3,2-b]pyridin-7-yloxy)phenylcarbamothioyl)-2-phenylacetamide]", "values": [{"measurement": "Tumor Growth Inhibition (%)", "setting": "[4]", "value": "d (% TGI in the range of 0-24)"}]}
{"compound": "Methyl 2-(1-(4-(2-(carbamoyl)thieno[3,2-b]pyridin-7-yloxy)-3-fluorophenyl)-3-(2-phenylacetyl)thioureido)propanoate [Example 11]", "values": [{"measurement": "IC50", "setting": "[1]", "value": "> 0.5", "unit": "µM"}, {"measurement": "IC50", "setting": "[2]", "value": "0.05 to 0.25", "unit": "µM"}, {"measurement": "IC50", "setting": "[3]", "value": "0.05 to 0.25", "unit": "µM"}]}
